Measured values published in patent US20200256880A1, “Neuronal Assay Method Involving Calcineurin” (The Broad Institute, Inc., priority 2017, published 2020).

Experiments:
[1] = tested on: S469 CNAα phosphorylation in rat hippocampal neurons; assay: Pharmacological blockade of glutamate receptors and L-type Ca channels, with or without bicuculline; phospho-S469 CNAα at synapsin-marked synapses; type: cell-based; settings: baseline and bicuculine-induced; localized to synapses marked by synapsin
Source text: (A) Rat hippocampal neurons grown in 96-well plates were stimulated with various plasticity induction paradigms or modulators of neuronal activity levels, fixed and stained for phospho-S469 CNAα and MAP2, and imaged. (B) Quantification of phospho-S469 CNAα levels within MAP2-positive dendrites in wells shown in (A). (C) Quantification of total CNAα levels within MAP2-positive dendrites in wells shown in (A). (D) Rat hippocampal neurons were pretreated with vehicle, DNQX, nifedipine, […], or a combination of all three (with group listed in this order from left to right in panel (D)) prior and after treatment with bicuculline. Neurons were then fixed and stained for phospho-S469 CNAα and synapsin and imaged on a Phenix® (Perkin Elmer) imaging system, a high content imaging system. Shown is the phospho-S469 CNAα levels localized to synapses marked by synapsin. Bic=bicuculine. *≤0.05 compared to control sample, **<0.01, ***<0.001, and ****<0.0001 compared to control sample. For FIG. 7D, statistics were derived by comparing the pharmacological condition with the equivalent control condition, either vehicle or bicucculine treated.
Next, the dependency of S469 CNAα phosphorylation was assessed when neurons were treated by blockade of glutamate receptors and L-type Ca channels using pharmacological blockers. […]

[2] = tested on: phospho-S469 CNAα in rat hippocampal neurons; type: cell-based
[3] = tested on: phosphorylated RII (pRII) peptide; assay: Calcineurin phosphatase enzyme assay with pRII peptide; type: biochemical, human; settings: recombinant CNAα/CNB1 holoenzyme, pRII substrate, in the presence of CaM
Experimental: To investigate whether phosphorylation of CNAα Ser469 modifies calcineurin phosphatase activity, a phosphomimetic mutant was generated by replacing S469 with E469 in purified, recombinant human calcineurin. The S469E mutant or wild type of CNAα was co-expressed with CNB1 subunit in E. coli and co-purified. Both mutant and wild type show similar expression level and purity. Their concentrations were quantified by OD280 and CaM titration.
Enzyme activity was then assessed. CN enzymatic parameters for wild-type and S469E mutant proteins were measured using phosphorylated RII (pRII) peptide in a buffer containing 50 mM HEPES (pH=7.0), 1 mM CaCl2, 1 mM MnCl2, 0.5 mM dithiothreitol (DTT), and 0.1 mg/ml bovine serum albumin (BSA). Phosphate product release was monitored at 620 nm on SpectraMax_i3x spectrophotometer (Molecular Devices) with a 96-well plate-based calcineurin phosphatase assay kit (Abcam). Briefly, CN (40 nM) and CM (200 nM) were pre-mixed in 2× assay buffer. The reaction was initiated by addition of 25 μl pRII substrate (in H2O) to equal volume of CN/CaM mixture. The final concentration of pRII used ranged from 12 μM to 750 μM. Reaction was stopped by green quench reagent after 20 minutes. Km was determined using nonlinear regression of the Michaelis-Menten equation.

NC(CCCP(=O)(O)O)C(=O)O (stereo not drawn) [AP5]
S469 CNAα phosphorylation [1]: most strongly reducing

N[C@H](C(=O)O)c1cc(O)cc(O)c1 [DHPG, dihydroxypheylglycine]
levels of phospho-S469 CNAα within dendrites [2]: significantly and robustly increased

CN[C@H](CC(=O)O)C(=O)O [NMDA, N-methyl-D-asparatate]
levels of phospho-S469 CNAα within dendrites [2]: significantly and robustly increased

NC1=N[C@H](O)[C@H]2[C@H]3O[C@]4(O)O[C@@H]([C@@H](O)[C@@]2(N1)[C@@H]4O)[C@]3(O)CO [TTX, tetrodotoxin]
levels of phospho-S469 CNAα within dendrites [2]: decrease

CC(C)NCC(O)c1ccc(O)c(O)c1 (stereo not drawn) [isoproterenol]
levels of phospho-S469 CNAα within dendrites [2]: significantly and robustly increased

S469E: phosphomimetic mutant of recombinant human CNAα (S469 replaced with E469) co-expressed with CNB1
Km [3]: 256 µM
